Like-named read-outs stand apart in the source and are kept apart here. Square brackets hold non-standard residues; d marks the D form. Peptide text beside a SMILES is read from it. d(hPhe) = N[C@H](CCc1ccccc1)C(=O)O; dPhLac = O=C(O)[C@H](O)Cc1ccccc1
How the values were obtained:
[1] = biological target: T1, Thrombin from human plasma (Homo sapiens, UniProt P00734); assay: Enzyme amidolytic assay, thrombin inhibition (chromogenic substrate S-2238); format: biochemical; settings: for Ki: Ki Thrombin, S-2238 substrate, 25 °C, Cheng and Prusoff
T1 construct: Thrombin from human plasma; purchased Sigma; host or cells: human plasma
Procedure: (§1) The enzyme amidolytic method for determining inhibition was based on the spectrophotometric determination of absorbance of the product formed after amide bond cleavage of a chromogenic substrate in the presence of the enzyme. Ki, which is a quantitative measure of inhibitor potency, was determined from the kinetics of substrate hydrolysis with and without the addition of the inhibitor. Measurements (spectrophotometer, BioTek Synergy H4, BioTek Instruments, Winooski, VT, USA) were performed in 96-well microtiter plates with a final volume of 200 µL. Thrombin (Thrombin from human plasma, Sigma, Taufkirchen, Germany) was tested at a final concentration of 0.5 NIH E/mL with the substrate S-2238 (H-D-Phenylalanyl-L-pipecolyl-L-arginine-p-nitroaniline dihydrochloride, Chromogenix AB, Mondal, Sweden) at 20 and 40 mM final concentration, and factor Xa (Factor Xa from bovine plasma, Chromogenix) at the final concentration of 1 mBAEE E/mL with the substrate S-2222 (N-Benzoyl-L-isoleucyl-L-glutamyl-glycyl-L-arginine-p-nitroaniline hydrochloride and its methyl ester, Chromogenix) at 100 and 200 mM final concentrations. Trypsin (Trypsin from bovine pancreas, Sigma) was assayed at a final concentration of 0.5 nkat/mL using the substrate S-2222 (Chromogenix) at 50 and 100 mM final concentrations. Inhibitors were dissolved in DMSO (concentration of stock solutions, 10 mmol/L) and diluted with distilled water to concentrations from […]. Reaction rates were measured in the presence and the absence of the inhibitor. Then, 50 µL HBSA buffer, 50 µL solution of each inhibitor concentration (or of HBSA buffer in case of measurement without inhibitor), and 50 µL of enzyme solution were pipetted into the microtiter wells. The plate was incubated for 15 min at 25 °C and then […] of chromogenic substrate was added. Absorbance at 405 nm at 25 °C was measured every 10 s. Measurements were carried out in triplicate with three concentrations of the inhibitor and two concentrations of the substrate. For every combination of concentrations, Ki was calculated from the change of absorbance in the initial, linear part of the curve according to the method of Cheng and Prusoff and the final result was given as their average value.

[2] = biological target: T2, Factor Xa from bovine plasma (Bos taurus, UniProt P00743); assay: Enzyme amidolytic assay, factor Xa inhibition (chromogenic substrate S-2222); format: biochemical; settings: for Ki: S-2222 substrate, 25 °C, Cheng and Prusoff
T2 construct: Factor Xa from bovine plasma; purchased Chromogenix; host or cells: bovine plasma
T2 sequence (P00743 41-180): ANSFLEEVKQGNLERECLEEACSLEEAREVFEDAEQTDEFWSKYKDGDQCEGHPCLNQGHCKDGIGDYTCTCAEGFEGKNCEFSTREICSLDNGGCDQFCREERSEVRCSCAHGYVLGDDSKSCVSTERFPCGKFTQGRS
T2 sequence (P00743 234-492): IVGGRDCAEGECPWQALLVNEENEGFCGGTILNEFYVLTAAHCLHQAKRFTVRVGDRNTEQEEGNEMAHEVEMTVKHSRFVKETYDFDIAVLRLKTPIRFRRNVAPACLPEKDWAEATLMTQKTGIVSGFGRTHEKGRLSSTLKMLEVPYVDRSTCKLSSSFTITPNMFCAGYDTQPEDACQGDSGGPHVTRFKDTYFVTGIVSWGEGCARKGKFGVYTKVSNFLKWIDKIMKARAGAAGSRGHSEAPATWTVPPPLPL
Procedure: as §1, with “Thrombin (Thrombin from human plasma, Sigma, Taufkirchen, Germany) was tested at a final concentration of 0.5 NIH E/mL with the substrate S-2238 (H-D-Phenylalanyl-L-pipecolyl-L-arginine-p-nitroaniline dihydrochloride, Chromogenix AB, Mondal, Sweden) at 20 and 40 mM final concentration, and factor Xa (Factor Xa from bovine plasma, Chromogenix) at the final concentration of 1 mBAEE E/mL with the substrate S-2222 (N-Benzoyl-L-isoleucyl-L-glutamyl-glycyl-L-arginine-p-nitroaniline hydrochloride and its methyl ester, Chromogenix) at 100 and 200 mM final concentrations. Trypsin (Trypsin from bovine pancreas, Sigma) was assayed at a final concentration of 0.5 nkat/mL using the substrate S-2222 (Chromogenix) at 50 and 100 mM final concentrations.” left out, “Absorbance at 405 nm at 25 °C was measured every 10 s.” left out

[3] = biological target: T3, Trypsin from bovine pancreas (Bos taurus, UniProt P00760); assay: Enzyme amidolytic assay, trypsin inhibition (chromogenic substrate S-2222); format: biochemical; settings: for Ki: S-2222 substrate, 25 °C, Cheng and Prusoff
T3 construct: Trypsin from bovine pancreas; purchased Sigma; host or cells: bovine pancreas
T3 sequence (P00760 24-246): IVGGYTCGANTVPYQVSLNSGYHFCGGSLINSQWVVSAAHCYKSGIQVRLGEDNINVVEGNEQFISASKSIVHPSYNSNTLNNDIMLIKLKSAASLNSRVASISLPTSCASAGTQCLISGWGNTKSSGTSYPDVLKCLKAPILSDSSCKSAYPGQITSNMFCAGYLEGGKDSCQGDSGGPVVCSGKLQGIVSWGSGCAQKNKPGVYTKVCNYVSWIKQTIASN
Procedure: as §1

Thrombin = settings: read-out: Thrombin Inhibition EC50; cited from earlier work

Compound | Ki [1] | Ki ([2]; read-out: Ki Factor Xa) | Ki [3] | EC50 (Thrombin) | Ki ([2]; Ki Factor Xa) | IC50 [1] | IC50 ([2]; in brackets in Ki Factor Xa column) | IC50 ([3]; in brackets in Ki Trypsin column)
COC(=O)C(CCCNC(=N)N)NC(=O)C1Cc2ccccc2N1C(=O)C(CCc1ccccc1)NC(=O)C(O)Cc1ccc(O)cc1 (mixture of isomers) [Compound 11e] | 30 ± 12 µM | 48 ± 5 µM | 3.9 ± 0.3 µM |  |  |  |  | 
COC(=O)C(CCCNC(=N)N)NC(=O)C1Cc2ccccc2N1C(=O)C(CCc1ccccc1)NC(=O)C(O)Cc1ccc(O)cc1 (mixture of isomers) [Compound 11k] | 34 ± 10 µM | 57 ± 8 µM | 72 ± 6 µM |  |  |  |  | 
N=C(N)NCCC[C@@H](CO)NC(=O)[C@@H]1Cc2ccccc2N1C(=O)[C@@H](CCc1ccccc1)NC(=O)[C@@H](O)Cc1ccc(O)cc1 (mixture of isomers) [Compound 11l] | 186 ± 48 µM | 62 ± 4 µM | 62 ± 3 µM |  |  |  |  | 
C[C@H]1C[C@@H](C(=O)N[C@H](CO)CCCN=C(N)N)N(C(=O)[C@@H](CCc2ccc(O)cc2)NC(=O)[C@H](O)Cc2ccc(O)cc2)C1 (racemic) [spumigin A (racemate), spumigin A] |  |  |  | 7.5 µM |  |  |  | 
COC(=O)[C@H](CCCNC(=N)N)NC(=O)[C@H]1Cc2ccccc2N1C(=O)[C@@H](Cc1ccccc1)NC(=O)[C@H](O)Cc1ccccc1 (single isomer, unassigned) [Compound 11a] | 52 ± 10 µM |  | 7.9 ± 3.5 µM |  | 49 ± 4 µM |  |  | 
COC(=O)[C@H](CCCNC(=N)N)NC(=O)[C@H]1Cc2ccccc2N1C(=O)[C@@H](CCc1ccccc1)NC(=O)[C@H](O)Cc1ccccc1 (single isomer, unassigned) [Compound 11b] | 44 ± 7 µM | 39 ± 6 µM | 2.8 ± 0.4 µM |  |  |  |  | 
N=C(N)NCCC[C@@H](CO)NC(=O)[C@H]1Cc2ccccc2N1C(=O)[C@@H](Cc1ccccc1)NC(=O)[C@H](O)Cc1ccccc1 (single isomer, unassigned) [Compound 11c] | 92 ± 20 µM | 54 ± 3 µM | 54 ± 1 µM |  |  |  |  | 
N=C(N)NCCC[C@@H](CO)NC(=O)[C@H]1Cc2ccccc2N1C(=O)[C@@H](CCc1ccccc1)NC(=O)[C@H](O)Cc1ccccc1 (single isomer, unassigned) [Compound 11d] | 11 ± 4 µM |  | 29 ± 2 µM |  | 47 ± 6 µM |  |  | 
COC(=O)[C@H](CCCNC(=N)N)NC(=O)[C@@H]1Cc2ccccc2N1C(=O)[C@@H](Cc1ccccc1)NC(=O)[C@H](O)Cc1ccccc1 (single isomer, unassigned) [Compound 11g] | 50 ± 9 µM |  | 126 ± 14 µM |  | 47 ± 8 µM |  |  | 
COC(=O)[C@H](CCCNC(=N)N)NC(=O)[C@@H]1Cc2ccccc2N1C(=O)[C@@H](CCc1ccccc1)NC(=O)[C@H](O)Cc1ccccc1 (single isomer, unassigned) [Compound 11h] | 24 ± 8 µM | 35 ± 9 µM | 58 ± 17 µM |  |  |  |  | 
N=C(N)NCCC[C@@H](CO)NC(=O)[C@@H]1Cc2ccccc2N1C(=O)[C@@H](Cc1ccccc1)NC(=O)[C@H](O)Cc1ccccc1 (single isomer, unassigned) [Compound 11i] | 170 ± 58 µM | 51 ± 4 µM | 50 ± 3 µM |  |  |  |  | 
N=C(N)NCCC[C@@H](CO)NC(=O)[C@@H]1Cc2ccccc2N1C(=O)[C@@H](CCc1ccccc1)NC(=O)[C@H](O)Cc1ccccc1 (single isomer, unassigned) [Compound 11j] | 187 ± 79 µM |  | 693 ± 159 µM |  | 41 ± 9 µM |  |  | 
N=C(N)NCCC[C@H](NC(=O)[C@H]1Cc2ccccc2N1C(=O)[C@@H](Cc1ccccc1)NC(=O)[C@H](O)Cc1ccccc1)C(=O)O (single isomer, unassigned) [Compound 12g] | 98 ± 26 µM | 69 ± 1 µM | 0.28 ± 0.04 µM |  |  |  |  | 
COC(=O)[C@H](CCCNC(=N)N)NC(=O)[C@@H]1Cc2ccccc2N1C(=O)[C@@H](CC(C)C)NC(=O)[C@H](O)Cc1ccccc1 (single isomer, unassigned) [Compound 29a] | 5.6 ± 0.3 µM | 30 ± 2 µM | 4.8 ± 0.7 µM |  |  |  |  | 
COC(=O)[C@H](CCCNC(=N)N)NC(=O)[C@H]1Cc2ccccc2N1C(=O)[C@@H](CC(C)C)NC(=O)[C@H](O)Cc1ccccc1 (single isomer, unassigned) [Compound 29b] | 129 ± 13 µM | 65 ± 2 µM | 134 ± 42 µM |  |  |  |  | 
N=C(N)NCCCC(CO)NC(=O)C1Cc2ccccc2N1C(=O)C(CCc1ccccc1)NC(=O)C(O)Cc1ccc(O)cc1 (stereo not drawn) [Compound 11f] | 20 ± 3 µM | 76 ± 3 µM | 14 ± 1 µM |  |  |  |  | 
COC(=O)[C@@H](CCCNC(=N)N)NC(=O)[C@H]1CCCN1C(=O)[C@@H](CCc1ccccc1)NC(=O)[C@H](O)Cc1ccccc1 [Compound 21a, Methyl ((R)-2-((R)-2-hydroxy-3-phenylpropanamido)-4-phenylbutanoyl)-D-prolyl-D-argininate] (H-[dPhLac][d(hPhe)][dP][dR]-OMe) | 3.8 ± 0.4 µM | 18 ± 4 µM | 1.4 ± 0.2 µM |  |  | 33 µM | 29 µM | 4.2 µM
COC(=O)C(CCCNC(=N)N)NC(=O)C1CCCN1C(=O)C(CCc1ccccc1)NC(=O)C(O)Cc1ccc(O)cc1 [Compound 21b, Methyl ((R)-2-((R,S)-2-hydroxy-3-(4-hydroxyphenyl)propanamido)-4-phenylbutanoyl)-D-prolyl-D-argininate] | 3.9 ± 0.4 µM | 29 ± 5 µM | 0.92 ± 0.08 µM |  |  |  |  | 
C[C@H]1C[C@@H](C(=O)N[C@H](CO)CCCN=C(N)N)N(C(=O)[C@@H](CCc2ccc(O)cc2)NC(=O)[C@H](O)Cc2ccc(O)cc2)C1 [spumigin A] |  |  |  | 2.1 µM |  |  |  | 
C[C@H]1C[C@@H](C(=O)N(C)[C@H](CCCCN)C(=O)O)N(C(=O)[C@@H](CCc2ccc(O)cc2)NC(=O)[C@H](O)Cc2ccc(O)cc2)C1 [spumigin J] |  |  |  | 4.9 µM |  |  |  | 

Reference: PMC6266488, “Synthesis and Evaluation of Spumigin Analogues Library with Thrombin Inhibitory Activity” (Marine Drugs, 2018)
